Experiment [1] concerns Eleventh-passage human periodontal ligament cells. The experiment can be described thus: Trophic factor expression in senescent cells of human periodontal membrane (real-time RT-PCR). The note with it: control = 1. The class given is cell-based. As for the experimental part: Eleventh-passage human periodontal ligament cells were plated in DMEM containing 10% FBS in collagen-coated 35 mm dishes (IWAKI) at a density of 2×10^4 cells/ml. After 20 hours, ALK5 inhibitor (SB431542) was added to final concentrations of 5 ng/μl and 10 ng/μl. Further, CCR3 antagonist (SB328437) was added to final concentrations of 5 ng/μl and 10 ng/μl. After 48 hours, mRNA was extracted, and real-time RT-PCR was performed on senescence markers, namely p16, p53, IL6, IL1b, IL8, and TNFα (Table 4).
Real-time RT-PCR was performed on trophic factors, namely, VEGF, BDNF, NGF, MCP1 (Table below) using mRNA similar to that described in 2 above.

Experiment [2] concerns Fourth-passage human dental pulp cells. The experiment can be described thus: Migration promotion of dental pulp cells by culture supernatant of senescent dental pulp stem cells (TAXIscan-FL). The note with it: 1 μl DPSC CM containing 1 μl of 20 mg/ml compound as attractant; n=4; non 5.0 ± 1.0. The experiment is classed as cell-based. As for the experimental part: (§1) Non-separated 22nd-passage human dental pulp stem cells were brought into a state of 50% confluence. The medium was replaced with a serum-free medium. After 24 hours, the culture conditioned medium was collected. The supernatant was concentrated approximately 40-fold using Amicon Ultra-15 Centrifugal Filter Unit with Ultracel-3 membrane (Millipore, Billerica, Mass.) with 3-kDa molecular cut. Proteinase inhibitors (Halt™ proteinase inhibitor cocktail EDTA-free, Thermo Scientific, Rockford, Ill., USA) was added. The mixture was dispended to be stored at −80° C. Protein content was measured using Bradford Ultra™ (Expedeon, Cambridge, UK).
Fourth-passage human dental pulp cells were plated in DMEM containing 10% FBS in 10 cm dishes (FALCON) at 2×10^4 cells/ml. After 48 hours, the cells were detached, and a real-time horizontal chemotaxis analysis was performed using TAXlscan-FL (Effector Cell Institute, Tokyo) to measure the migratory capacity. Specifically, channels optimized (8 μm) for the size of the cells were formed between a silicon plate having 6 μm pores and a glass plate, and 1 μl of treated dental pulp cells (10^5 cells/ml) was injected to one end portion of each of the channels (n=4). As a control, one of the channels received nothing at the opposite end portion. […] Based on the video images of migration, the number of migrating cells after 12 hours was measured.

In experiment [3] the test system is Fifth-passage human periodontal membrane cells. The experiment can be described thus: mRNA expression of CCL11, CCR3 and GDF11 in human periodontal membrane cells (real-time RT-PCR). The experiment is classed as cell-based. The note with it: 5, 10 and 30 ng/μl added; after 32 hours. As for the experimental part:
Fifth-passage human periodontal membrane cells were plated in a DMEM containing 10% FBS in collagen-coated 35 mm dishes (IWAKI) at a density of 2×10^4 cells/ml. After 9 hours, an ALK5 inhibitor (SB431542) was added to final concentrations of 5 ng/μl, 10 ng/μl, and 30 ng/μl. Further, a CCR3 antagonist (SB328437) was added to final concentrations of 5 ng/μl, 10 ng/μl, and 30 ng/μl. After 32 hours, mRNA was extracted, and real-time RT-PCR was performed on CCL11, CCR3, and GDF11.
On the technique in general: Real-time PCR tracks product formation cycle by cycle.

The subject of experiment [4] is TGW cells (human neuroblastoma cell line). The experiment can be described thus: Neurite outgrowth in TGW cells with culture conditioned medium of senescent dental pulp stem cells. The note with it: after 48 hours, DPSC CM alone 111.5 ± 14.1 μm. The experiment is classed as cell-based. As for the experimental part:
as §1
The culture supernatant (5 μg/ml proteins) prepared in 1 above was added to TGW cells (human neuroblastoma cell line). Further, an ALK5 inhibitor (SB431542, 10 ng/μl) was added to a part of the resultant mixture, and a CCR3 antagonist (SB328437, 5 ng/μl) was added to another part of the resultant mixture. TGW cells to which only the culture supernatant was added was used as a negative control. […] Neurite outgrowth after 48 hours was observed and measured with an inverted microscope (Leica).

In experiment [5] the test system is post-pulpectomy root canal of a tooth of the canine of middle or advanced age. The experiment can be described thus: Dental pulp regeneration after trypsin pretreatment plus root canal filler containing CCR3 antagonist. Particulars: pretreatment with trypsin (50 μg/ml with nanobubble liquid, 10 minutes) then filler with 200 ng; after 14 days; vs no pretreatment. The experiment is classed as in vivo, dog. As for the experimental part:
After 7 to 14 days following a pulpectomy treatment, the treated root canal underwent alternate washing, and then, washing with physiologic saline. Smear clean was then allowed to react for 2 minutes. The root canal was then further washed with physiologic saline, and dried. Further, FRANCETIN⋅T⋅POWDER (2,500 USP of crystalized trypsin per 10 mg) (MOCHIDA PHARMACEUTICAL CO., LTD.) was mixed with a nanobubble liquid into a 50 μg/ml (0.05%) solution. The solution was allowed to react for 10 minutes. The root canal was washed with physiologic saline, and dried. In the same manner as in Example 3, a root canal filler was prepared by suspending 1×10^6 allogeneic dental pulp stem cells, which had been membrane-isolated, in 40 μl of a scaffold (Koken Atelocollagen Implant), and by suspending 3 μl of a 100 μg/ml G-CSF (NEUTROGIN). Further a CCR3 antagonist (SB328437, 200 ng) was added to the root canal filler. The root canal filler was injected into the post-pulpectomy root canal. After 14 days following the transplantation, the tooth was extracted, and 5 μm paraffin sections were prepared. The paraffin sections were then H-E stained to undergo morphological observation.

For `NC(=O)c1ccc(-c2nc(-c3ccc4c(c3)OCO4)c(-c3ccccn3)[nH]2)cc1` [ALK5 inhibitor, SB431542], in experiment [1] (5 ng/μl), the “BDNF trophic factor expression” value was 0.44, the “MCP1 trophic factor expression” value is given as 1.08, the “NGF trophic factor expression” value stood at 0.58 and the “VEGF trophic factor expression” value came to 0.96. Moreover, in experiment [1] (10 ng/μl), the “BDNF trophic factor expression” value was found to be 0.47, the “MCP1 trophic factor expression” value was found to be 0.96, the “NGF trophic factor expression” value turned out to be 0.44 and the “VEGF trophic factor expression” value was 1.25. Moreover, in experiment [2], the “number of migrating cells after 12 hours, Average ± SD” value was 12.7 ± 2.1. For the same compound, in experiment [3], the “increase of expression of GDF11 mRNA” value stood at 5 times and the “mRNA expression of CCL11” value was “completely suppressed”. In addition, in experiment [4] (DPSC CM + 10 ng/μl), the “Neurite Outgrowth Length” value was found to be 2710.5 ± 1223.0 μm.

For the compound `COC(=O)[C@H](Cc1ccc([N+](=O)[O-])cc1)NC(=O)c1cccc2ccccc12` [CCR3 antagonist, SB328437], in experiment [1] (5 ng/μl), the “BDNF trophic factor expression” value is recorded as 0.33, the “MCP1 trophic factor expression” value is recorded as 2.35, the “NGF trophic factor expression” value was 0.50 and the “VEGF trophic factor expression” value was determined as 0.92. Moreover, in experiment [1] (10 ng/μl), the “BDNF trophic factor expression” value was found to be 0.43, the “MCP1 trophic factor expression” value is 0.54, the “NGF trophic factor expression” value is 0.58 and the “VEGF trophic factor expression” value was 0.70. Moreover, in experiment [5], the “amount of regenerated dental pulp tissue” value is recorded as “significant increase”. Moreover, the “number of migrating cells after 12 hours, Average ± SD” value in experiment [2] was 23.7 ± 5.1. For the same compound, in experiment [3], the “mRNA expression of CCL11” value is “completely suppressed” and the “mRNA expression of CCR3” value is reported as “completely suppressed”. The “Neurite Outgrowth Length” value in experiment [4] (DPSC CM + 5 ng/μl) is given as 518.7 ± 126.5 μm.

Values taken from patent US10668134B2, “Dental pretreatment material and dental tissue regeneration kit” (National Center for Geriatrics and Gerontology, priority 2016, dated 2020).
